# Experimental data reported in the supplement of paper PMC4862054.
# Legend:
# Conditions in all cases: incubation time: 72 h
# MCF-10A = experiment: normalised response (% of control), CellTiter-Glo; higher = more viable cells (100 = DMSO, 0 = benzethonium chloride kill control)
# How it was run: (§1)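 After 72 h with compound in 384-well plates, breast cancer cell lines seeded as 20 µl suspension were read for CellTox Green fluorescence at 485/520 nm. CellTiter-Glo luminescence was then read after 10 min at room temperature. Compound was present at 5 concentrations in 10-fold steps over a 10,000-fold range set per compound, and plates were normalised to 0.1 % DMSO (100) and a positive kill control (0). Values are normalised signals, each at a single concentration.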
# CAL-85-1 [1] = experiment: as above
# How it was run: as §1
# DU-4475 [2] = experiment: as above
# How it was run: as §1
# MDA-MB-453 [3] = experiment: as above
# How it was run: as §1
# HCC1599 [4] = experiment: as above
# How it was run: as §1
# MFM-223 [5] = experiment: as above
# How it was run: as §1
# CAL-120 [6] = experiment: as above
# How it was run: as §1
# MDA-MB-231 [7] = experiment: as above
# How it was run: as §1
# BT-549 [8] = experiment: as above
# How it was run: as §1
# HDQ-P1 [9] = experiment: as above
# How it was run: as §1
# Hs578T [10] = experiment: as above
# How it was run: as §1
# CAL-148 [11] = experiment: as above
# How it was run: as §1
# SK-BR-3 [12] = experiment: as above
# How it was run: as §1
# BT-474 [13] = experiment: as above
# How it was run: as §1
# MDA-MB-436 [14] = experiment: as above
# How it was run: as §1
# HCC1937 [15] = experiment: as above
# How it was run: as §1
# MDA-MB-468 [16] = experiment: as above
# How it was run: as §1
# HCC1143 [17] = experiment: as above
# How it was run: as §1
# CAL-51 [18] = experiment: as above
# How it was run: as §1
# CAL-85-1 [19] = experiment: normalised viability (% of control), CellTiter-Blue; higher = more viable cells (100 = DMSO, 0 = benzethonium chloride kill control)
# Procedure: (§2)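 DSRT, CellTiter-Blue viability, 72 h incubation. Signal is normalised to DMSO and benzethonium chloride controls. Value is the normalised response at dose 1.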
# DU-4475 [20] = experiment: as above
# Procedure: as §2
# MDA-MB-453 [21] = experiment: as above
# Procedure: as §2
# HCC1599 [22] = experiment: as above
# Procedure: as §2
# MFM-223 [23] = experiment: as above
# Procedure: as §2
# CAL-120 [24] = experiment: as above
# Procedure: as §2
# MDA-MB-231 [25] = experiment: as above
# Procedure: as §2
# BT-549 [26] = experiment: as above
# Procedure: as §2
# HDQ-P1 [27] = experiment: as above
# Procedure: as §2
# Hs578T [28] = experiment: as above
# Procedure: as §2
# CAL-148 [29] = experiment: as above
# Procedure: as §2
# SK-BR-3 [30] = experiment: as above
# Procedure: as §2
# BT-474 [31] = experiment: as above
# Procedure: as §2
# MDA-MB-436 [32] = experiment: as above
# Procedure: as §2
# HCC1937 [33] = experiment: as above
# Procedure: as §2
# MDA-MB-468 [34] = experiment: as above
# Procedure: as §2
# HCC1143 [35] = experiment: as above
# Procedure: as §2
# CAL-51 [36] = experiment: as above
# Procedure: as §2
SMILES,normalised response (MCF-10A) [%],normalised response (CAL-85-1 [1]) [%],normalised response (DU-4475 [2]) [%],normalised response (MDA-MB-453 [3]) [%],normalised response (HCC1599 [4]) [%],normalised response (MFM-223 [5]) [%],normalised response (CAL-120 [6]) [%],normalised response (MDA-MB-231 [7]) [%],normalised response (BT-549 [8]) [%],normalised response (HDQ-P1 [9]) [%],normalised response (Hs578T [10]) [%],normalised response (CAL-148 [11]) [%],normalised response (SK-BR-3 [12]) [%],normalised response (BT-474 [13]) [%],normalised response (MDA-MB-436 [14]) [%],normalised response (HCC1937 [15]) [%],normalised response (MDA-MB-468 [16]) [%],normalised response (HCC1143 [17]) [%],normalised response (CAL-51 [18]) [%],normalised viability (CAL-85-1 [19]) [%],normalised viability (DU-4475 [20]) [%],normalised viability (MDA-MB-453 [21]) [%],normalised viability (HCC1599 [22]) [%],normalised viability (MFM-223 [23]) [%],normalised viability (CAL-120 [24]) [%],normalised viability (MDA-MB-231 [25]) [%],normalised viability (BT-549 [26]) [%],normalised viability (HDQ-P1 [27]) [%],normalised viability (Hs578T [28]) [%],normalised viability (CAL-148 [29]) [%],normalised viability (SK-BR-3 [30]) [%],normalised viability (BT-474 [31]) [%],normalised viability (MDA-MB-436 [32]) [%],normalised viability (HCC1937 [33]) [%],normalised viability (MDA-MB-468 [34]) [%],normalised viability (HCC1143 [35]) [%],normalised viability (CAL-51 [36]) [%]
Cc1[nH]c2ccccc2c1CCNCc1ccc(/C=C/C(=O)NO)cc1 [Panobinostat] (0.1 nM),96.2,102,99.7,103,98.6,99.5,107,105,99.5,98.2,91.8,105,95.9,101,98.9,94.7,94.4,100,130,104,111,108,116,104,102,109,108,100,100,106,97.2,102,109,104,106,104,110
N#Cc1ccc(COC[C@H]2O[C@@H](n3c(NCc4ccc(Cl)c(Cl)c4)nc4c(N)ncnc43)[C@H](O)[C@@H]2O)cc1 (1 nM),112,104,99.1,112,110,107,108,107,99.8,108,101,110,109,109,104,103,107,108,78.2,98.4,111,110,109,92.5,101,102,105,118,92.8,111,91.4,116,110,84.1,95.5,99.9,111
CN(C)c1nc(N(C)C)nc(N(C)C)n1 [Altretamine] (1 nM),102,96.4,104,124,90.2,103,97,104,95,101,102,96.5,108,106,97.9,93.1,101,99.6,103,94.8,111,99.1,86.3,95.1,88.2,96,93.1,116,97.3,111,87.6,112,110,105,93.1,102,105
O=P1(N(CCCl)CCCl)NCCCO1 (stereo unspecified) [Cyclophosphamide] (4 nM),111,97.4,103,115,107,105,93.4,96.9,98.5,97.7,101,99.6,110,93.9,94,96.7,102,100,81.2,88.2,120,104,81.6,85.1,87.3,96.9,93.2,107,102,119,101,97,110,82.9,98.9,96.8,105
CNC(=O)c1cc(Oc2ccc(NC(=O)Nc3ccc(Cl)c(C(F)(F)F)c3)c(F)c2)ccn1 [Regorafenib] (1 nM),104,104,102,115,110,97.2,94.1,100,99.9,100,99.5,94.2,112,95.7,99.9,96.4,114,98.5,90.1,88.9,121,105,131,106,89.7,101,102,88.5,84.9,103,100,91.4,104,83.5,108,100,96
COCC1(CO)C(=O)C2CCN1CC2 (stereo unspecified) [Prima-1 Met] (1 nM),108,101,102,116,101,104,97.1,101,104,108,99.1,107,109,102,102,95.5,107,98.8,81.5,90.5,120,93.9,123,98.7,86.9,89.7,106,83,114,93.2,104,96.1,104,74.9,108,91.1,90.5
O=C(Nc1ccncc1)C(=O)c1cn(Cc2ccc(Cl)cc2)c2ccccc12 [Indibulin] (1 nM),101,106,109,113,113,107,99.1,102,104,106,100,109,110,103,103,100,103,97.2,59.7,98.9,121,103,109,97,92.1,119,100,77.9,111,111,102,104,161,95.8,102,95.7,106
CC(C)C[C@@H](C(=O)N[C@H](C(=O)OC1CCCC1)c1ccccc1)[C@H](O)C(=O)NO [Tosedostat] (1 nM),98.7,103,103,110,106,105,103,107,100,100,94.4,104,109,100,103,97.4,102,100,108,101,93.3,108,106,94.3,100,114,92.1,130,118,109,108,98.7,100,86.9,111,102,112
